Assay results as given in patent US10568950B1, “Peptides, combination of peptides and scaffolds for use in immunotherapeutic treatment of various cancers” (Immatics Biotechnologies GmbH, priority 2015, dated 2020).

Columns and labels:
[1] = test system: CD8+ T cells of healthy HLA-A*02+ donors; experiment: In vitro immunogenicity: priming of CD8+ T cells with aAPCs loaded with HLA-A*02/peptide complexes and anti-CD28, multimer staining; type: cell-based, human; settings: HLA-A*02 peptides of Table 12B
Description: CD8+ T cells were primed using artificial APCs coated with anti-CD28 mAb and HLA-A*02 in complex with SEQ ID NO: 2 peptide (FIG. 4A, left panel), SEQ ID NO: 9 peptide (FIG. 4B, left panel) and SEQ ID NO: 331 peptide (FIG. 4C, left panel), respectively. After three cycles of stimulation, the detection of peptide-reactive cells was performed by 2D multimer staining with A*02/SEQ ID NO: 2 (A), A*02/SEQ ID NO: 9 (B) or A*02/SEQ ID NO: 331 (C). Right panels (FIGS. 4A, 4B and 4C) show control staining of cells stimulated with irrelevant A*02/peptide complexes. Viable singlet cells were gated for CD8+ lymphocytes. Boolean gates helped excluding false-positive events detected with multimers specific for different peptides. Frequencies of specific multimer+ cells among CD8+ lymphocytes are indicated.
(§1) In order to obtain information regarding the immunogenicity of the TUMAPs of the present invention, the inventors performed investigations using an in vitro T-cell priming assay based on repeated stimulations of CD8+ T cells with artificial antigen presenting cells (aAPCs) loaded with peptide/MHC complexes and anti-CD28 antibody.
In order to perform in vitro stimulations by artificial antigen presenting cells loaded with peptide-MHC complex (pMHC) and anti-CD28 antibody, the inventors first isolated CD8+ T cells from fresh HLA-A*02 leukapheresis products via positive selection using CD8 microbeads (Miltenyi Biotec, Bergisch-Gladbach, Germany) of healthy donors obtained from the University clinics Mannheim, Germany, after informed consent.
(§2) PBMCs and isolated CD8+ lymphocytes were incubated in T-cell medium (TCM) until use consisting of RPMI-Glutamax (Invitrogen, Karlsruhe, Germany) supplemented with 10% heat inactivated human AB serum (PAN-Biotech, Aidenbach, Germany), 100 U/ml Penicillin/100 μg/ml Streptomycin (Cambrex, Cologne, Germany), 1 mM sodium pyruvate (CC Pro, Oberdorla, Germany), 20 μg/ml Gentamycin (Cambrex). 2.5 ng/ml IL-7 (PromoCell, Heidelberg, Germany) and 10 U/ml IL-2 (Novartis Pharma, Nurnberg, Germany) were also added to the TCM at this step.
(§3) Generation of pMHC/anti-CD28 coated beads, T-cell stimulations and readout was performed in a highly defined in vitro system using four different pMHC molecules per stimulation condition and 8 different pMHC molecules per readout condition.
(§4) The purified co-stimulatory mouse IgG2a anti human CD28 Ab 9.3 (Jung et al., 1987) was chemically biotinylated using Sulfo-N-hydroxysuccinimidobiotin as recommended by the manufacturer (Perbio, Bonn, Germany). Beads used were 5.6 μm diameter streptavidin coated polystyrene particles (Bangs Laboratories, Illinois, USA).
pMHC used for positive and negative control stimulations were A*0201/MLA-001 (peptide […] (SEQ ID NO. 418) from modified Melan-A/MART-1) and A*0201/DDX5-001 ([…] from DDX5, SEQ ID NO. 419), respectively.
800.000 beads/200 μl were coated in 96-well plates in the presence of 4×12.5 ng different biotin-pMHC, washed and 600 ng biotin anti-CD28 were added subsequently in a volume of 200 μl. Stimulations were initiated in 96-well plates by co-incubating 1×10^6 CD8+ T cells with 2×10^5 washed coated beads in 200 μl TCM supplemented with 5 ng/ml IL-12 (PromoCell) for 3 days at 37° C. Half of the medium was then exchanged by fresh TCM supplemented with 80 U/ml IL-2 and incubating was continued for 4 days at 37° C. This stimulation cycle was performed for a total of three times. For the pMHC multimer readout using 8 different pMHC molecules per condition, a two-dimensional combinatorial coding approach was used as previously described (Andersen et al., 2012) with minor modifications encompassing coupling to 5 different fluorochromes. Finally, multimeric analyses were performed by staining the cells with Live/dead near IR dye (Invitrogen, Karlsruhe, Germany), CD8-FITC antibody clone SKI (BD, Heidelberg, Germany) and fluorescent pMHC multimers. For analysis, a BD LSRII SORP cytometer equipped with appropriate lasers and filters was used. […]

HLA-A*02 = HLA-A*02 (Homo sapiens, UniProt P04439, D140Y/D185E/D98H/E176V/E277Q/G131W/G231S/I119V/I121R/I166T/I218V/N151K/N90K/P208A/P217A/Q86G/Q94H/R138H/R169H); experiment: MHC binding assay: UV-ligand exchange, beta2m ELISA (peptide exchange yield); settings: binding to HLA-A*02, β2m ELISA
Source text: Candidate peptides for T cell based therapies according to the present invention were further tested for their MHC binding capacity (affinity). The individual peptide-MHC complexes were produced by UV-ligand exchange, where a UV-sensitive peptide is cleaved upon UV-irradiation, and exchanged with the peptide of interest as analyzed. Only peptide candidates that can effectively bind and stabilize the peptide-receptive MHC molecules prevent dissociation of the MHC complexes. To determine the yield of the exchange reaction, an ELISA was performed based on the detection of the light chain (β2m) of stabilized MHC complexes. The assay was performed as generally described in Rodenko et al. (Rodenko et al., 2006).
96 well MAXISorp plates (NUNC) were coated over night with 2 ug/ml streptavidin in PBS at room temperature, washed 4× and blocked for 1 h at 37° C. in 2% BSA containing blocking buffer. […] Peptide-MHC monomers of the UV-exchange reaction were diluted 100 fold in blocking buffer. Samples were incubated for 1 h at 37° C., washed four times, incubated with 2 ug/ml HRP conjugated anti-βm for 1 h at 37° C., washed again and detected with TMB solution that is stopped with […]. Absorption was measured at 450 nm. Candidate peptides that show a high exchange yield (preferably higher than 50%, most preferred higher than 75%) are generally preferred for a generation and production of antibodies or fragments thereof, and/or T cell receptors or fragments thereof, as they show sufficient avidity to the MHC molecules and prevent dissociation of the MHC complexes.

[2] = test system: CD8+ T cells of healthy HLA-A*24+ donors; experiment: In vitro immunogenicity: priming of CD8+ T cells with aAPCs loaded with HLA-A*24/peptide complexes and anti-CD28, multimer staining; type: cell-based, human; settings: in vitro immunogenicity, HLA-A*24 peptides of Table 12B
Description: CD8+ T cells were primed using artificial APCs coated with anti-CD28 mAb and HLA-A*24 in complex with SEQ ID NO: 99 peptide (FIG. 5A, left panel), SEQ ID NO: 119 peptide (FIG. 5B, left panel), SEQ ID NO: 142 peptide (FIG. 5C, left panel) and SEQ ID NO: 174 peptide (FIG. 5D, left panel), respectively. After three cycles of stimulation, the detection of peptide-reactive cells was performed by 2D multimer staining with A*24/SEQ ID NO: 99 (A), A*24/SEQ ID NO: 119 (B), A*24/SEQ ID NO: 142 (C) or A*24/SEQ ID NO: 174 (D). Right panels (FIGS. 5A, 5B, 5C and 5D) show control staining of cells stimulated with irrelevant A*24/peptide complexes. Viable singlet cells were gated for CD8+ lymphocytes. Boolean gates helped excluding false-positive events detected with multimers specific for different peptides. Frequencies of specific multimer+ cells among CD8+ lymphocytes are indicated.
as §1, §2, §3, §4
800.000 beads/200 μl were coated in 96-well plates in the presence of 4×12.5 ng different biotin-pMHC, washed and 600 ng biotin anti-CD28 were added subsequently in a volume of 200 μl. Stimulations were initiated in 96-well plates by co-incubating […] CD8+ T cells with 2×10^5 washed coated beads in 200 μl TCM supplemented with 5 ng/ml IL-12 (PromoCell) for 3 days at 37° C. Half of the medium was then exchanged by fresh TCM supplemented with 80 U/ml IL-2 and incubating was continued for 4 days at 37° C. This stimulation cycle was performed for a total of three times. For the pMHC multimer readout using 8 different pMHC molecules per condition, a two-dimensional combinatorial coding approach was used as previously described (Andersen et al., 2012) with minor modifications encompassing coupling to 5 different fluorochromes. Finally, multimeric analyses were performed by staining the cells with Live/dead near IR dye (Invitrogen, Karlsruhe, Germany), CD8-FITC antibody clone SKI (BD, Heidelberg, Germany) and fluorescent pMHC multimers. For analysis, a BD LSRII SORP cytometer equipped with appropriate lasers and filters was used. Peptide specific cells were calculated as percentage of total CD8+ cells. Evaluation of multimeric analysis was done using the FlowJo software (Tree Star, Oreg., USA). In vitro priming of specific multimer+ CD8+ lymphocytes was detected by comparing to negative control stimulations.

HLA-A*24 = experiment: MHC binding assay: UV-ligand exchange, beta2m ELISA (peptide exchange yield); set-up: species or system human; settings: binding to HLA-A*24, β2m ELISA

Substance | Peptide exchange (MHC class I binding score, peptide exchange yield) (HLA-A*02) | Peptide exchange (MHC class I binding score, peptide exchange yield) (HLA-A*24) | Wells positive [%] [1] | Wells positive [%] [2]
2 (ALYGKLLKL; listed as Homo sapiens) [compound 2] | +++ (50%-75% = +++) | – | ++++ (>= 70 % = ++++) | –
17 (ILHEHHIFL; listed as Homo sapiens) [compound 17] | +++ (50%-75% = +++) | – | + (<20% = +) | –
170 (QYPFHVPLL; listed as Homo sapiens) [compound 170] | – | ++++ (>= 75% = ++++) | – | +++ (50%-69% = +++)
186 (VFTTSSNIF; listed as Homo sapiens) [compound 186] | – | ++++ (>= 75% = ++++) | – | + (<20% = +)
322 (ALVSGGVAQA; listed as Homo sapiens) [compound 322] | +++ (50%-75% = +++) | – | + (<20% = +) | –
359 (NYGVLHVTF; listed as Homo sapiens) [compound 359] | – | ++++ (>= 75% = ++++) | – | + (<20% = +)
365 (VFIDHPVHL; listed as Homo sapiens) [compound 365] | – | ++++ (>= 75% = ++++) | – | + (<20% = +)

Now from value to substance, other results behind:

Peptide exchange (MHC class I binding score, peptide exchange yield) (HLA-A*02) | Peptide exchange (MHC class I binding score, peptide exchange yield) (HLA-A*24) | Substance | Wells positive [%] [1] | Wells positive [%] [2]
+++ (50%-75% = +++) | – | 7 (AAAAKVPEV; listed as Homo sapiens) [compound 7] | + (<20% = +) | –
+++ (50%-75% = +++) | – | 8 (KLGPFLLNA; listed as Homo sapiens) [compound 8] | +++ (50%-69% = +++) | –
++ (20%-49% = ++) | – | 9 (FLGDYVENL; listed as Homo sapiens) [compound 9] | + (<20% = +) | –
+++ (50%-75% = +++) | – | 43 (LLWAGPVTA; listed as Homo sapiens) [compound 43] | ++++ (>= 70 % = ++++) | –
– | ++++ (>= 75% = ++++) | 172 (VFIFKGNEF; listed as Homo sapiens) [compound 172] | – | + (<20% = +)
– | ++++ (>= 75% = ++++) | 182 (AYAQLGYLLF; listed as Homo sapiens) [compound 182] | – | +++ (50%-69% = +++)
+++ (50%-75% = +++) | – | 331 (AIWKELISL; listed as Homo sapiens) [compound 331] | ++ (20%-49% = ++) | –
– | ++++ (>= 75% = ++++) | 356 (NYMPGQLTI; listed as Homo sapiens) [compound 356] | – | + (<20% = +)
– | ++++ (>= 75% = ++++) | 380 (VYTGIDHHW; listed as Homo sapiens) [compound 380] | – | + (<20% = +)
